Data from US20250230193A1, “CYCLIC COMPOUND HAVING SELECTIVE KRAS INHIBITORY EFFECT ON HRAS AND NRAS” (CHUGAI SEIYAKU KABUSHIKI KAISHA, priority 2022, published 2025).
*1 amine or outer side, *2 acyl side, *3 side chain or, on linkers, in order; H or OH if unused. Where a SMILES comes first, the peptide text is derived from it. Bridges are numbered along the chain shown (N, C = ends). [ ]: non-standard residue; d: D form. The star is where a group is joined. hPhe(3,5-F2-4-CF3) = N[C@@H](CCc1cc(F)c(C(F)(F)F)c(F)c1)C(=O)O; NPrPhe(4-CF3) = CCCN[C@@H](Cc1ccc(C(F)(F)F)cc1)C(=O)O; NMeGly(cPent) = CN[C@H](C(=O)O)C1CCCC1; X13 = CCC[C@](C)(N[*:1])C(=O)[*:2]; NMeD = CN[C@@H](CC(=O)O)C(=O)O; NMeL = CN[C@@H](CC(C)C)C(=O)O; αMeS = C[C@](N)(CO)C(=O)O; Morpholide = C1CN(*)CCO1; Aze = O=C(O)[C@@H]1CCN1; Sar = CNCC(=O)O; Allyl = C=CC*

How the values were obtained:
[1] = target: GDP-bound NRAS wild-type protein (Homo sapiens, UniProt P01111); experiment: Binding to NRAS by surface plasmon resonance (SPR), Single Cycle Kinetics; conditions: for NRAS/KRAS (ratio of KD value with respect to NRAS to KD value with respect to KRAS): GDP-bound NRAS wild-type vs GDP-bound KRAS wild-type
[2] = target: GDP-bound HRAS wild-type protein (Homo sapiens, UniProt P01112); experiment: Binding to HRAS by surface plasmon resonance (SPR), Single Cycle Kinetics; conditions: for HRAS/KRAS (ratio of KD value with respect to HRAS to KD value with respect to KRAS): GDP-bound HRAS wild-type vs GDP-bound KRAS wild-type
GDP-bound HRAS wild-type protein, sequence (P01112 whole entry): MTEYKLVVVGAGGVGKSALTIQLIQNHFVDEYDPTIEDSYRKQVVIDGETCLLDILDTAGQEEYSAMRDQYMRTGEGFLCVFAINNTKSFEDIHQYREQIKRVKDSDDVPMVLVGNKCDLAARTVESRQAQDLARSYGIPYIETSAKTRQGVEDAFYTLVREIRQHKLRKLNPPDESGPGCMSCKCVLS

GDP-bound NRAS wild-type protein, sequence (P01111 whole entry): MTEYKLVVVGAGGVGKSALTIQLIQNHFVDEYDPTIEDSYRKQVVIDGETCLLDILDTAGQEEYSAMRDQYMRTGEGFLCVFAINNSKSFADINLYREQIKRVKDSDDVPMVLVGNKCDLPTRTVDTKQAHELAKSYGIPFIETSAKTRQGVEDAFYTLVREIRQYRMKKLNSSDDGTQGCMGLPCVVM

## C=CCC[C@H]1C(=O)N[C@@H]([C@@H](C)CC)C(=O)N(C)CC(=O)N(C)[C@H]2CCCCCN(C2=O)[C@@H](Cc2ccc(C(F)(F)F)cc2)C(=O)N(C)CC(=O)N[C@@H](CCc2cc(F)c(C(F)(F)F)c(F)c2)C(=O)N2C[C@H](OCC)C[C@H]2C(=O)N[C@](C)(CC=C)C(=O)N(C)[C@@H](C2CCCC2)C(=O)N(C)[C@H](C(=O)N2CCOCC2)CC(=O)N1C [PP0879]
[1]; KD ratio, SPR
  NRAS/KRAS (ratio of KD value with respect to NRAS to KD value with respect to KRAS): B (a compound having 3 or more and less than 10 is denoted as B)
[2]; KD ratio, SPR
  HRAS/KRAS (ratio of KD value with respect to HRAS to KD value with respect to KRAS): B (a compound having 3 or more and less than 10 is denoted as B)

## CCCN1C(=O)CN(C)C(=O)CN(C)C(=O)[C@H]([C@@H](C)CC)NC(=O)[C@H](CC(C)C)N(C)C(=O)C[C@@H](C(=O)N(C)C)N(C)C(=O)[C@H](C2CCCC2)N(C)C(=O)[C@](C)(CCC)NC(=O)[C@@H]2CCCN2C(=O)[C@H](CCc2cc(F)c(C(F)(F)F)c(F)c2)NC(=O)CN(C)C(=O)[C@@H]1Cc1ccc(C(F)(F)F)cc1 [PP0737] ([NMeL]I[Sar][Sar][NPrPhe(4-CF3)][Sar][hPhe(3,5-F2-4-CF3)]P[X13][NMeGly(cPent)][NMeD]-NMe2; lactam N-11)
[1]; SPR
  NRAS/KRAS (ratio of KD value with respect to GDP-bound NRAS wild-type protein to KD value with respect to KRAS): B (a compound having 3 or more and less than 10 is denoted as B)
[2]; SPR
  HRAS/KRAS (ratio of KD value with respect to GDP-bound HRAS wild-type protein to KD value with respect to KRAS): C (A compound having a KD ratio of 0.1 or more and less than 3 is denoted as C)

## CCO[C@@H]1C[C@H]2C(=O)NC3(CC(C)(C)C3)C(=O)N(C)[C@@H](C(CC)CC)C(=O)N(C)[C@H](C(=O)N(C)C)CC(=O)N(C)[C@@H](CC3CCC3)C(=O)N[C@@H]([C@@H](C)CC)C(=O)N(C)CC(=O)N(C)[C@H]3C/C=C\CCN(C3=O)[C@@H](Cc3ccc(C(F)(F)F)cc3)C(=O)N(C)CC(=O)N[C@@H](CCc3ccc(C(F)(F)F)c(OC)c3)C(=O)N2C1 [PP2164]
[1]; SPR
  NRAS/KRAS (ratio of KD value with respect to NRAS to KD value with respect to KRAS): A (a compound having 10 or more and less than 20 is denoted as A)
[2]; SPR
  HRAS/KRAS (ratio of KD value with respect to HRAS to KD value with respect to KRAS): A (a compound having 10 or more and less than 20 is denoted as A)

## CC[C@H](C)[C@@H]1NC(=O)[C@H](CC(C)C)N(C)C(=O)C[C@@H](C(=O)N(C)C)N(C)C(=O)[C@H](C2CCCC2)N(C)C(=O)C2(CCC2)NC(=O)[C@@H]2[C@@H](OCC(F)F)CCN2C(=O)[C@H](CCc2cc(F)c(C(F)(F)F)c(F)c2)NC(=O)CN(C)C(=O)[C@H](Cc2ccc(C(F)(F)F)cc2)N2CC/C=C\C[C@@H](C2=O)N(C)C(=O)CN(C)C1=O [PP1534]
[1]; SPR, KD ratio class
  NRAS/KRAS (ratio of KD value for GDP-bound NRAS wild-type protein to KD value for KRAS): AA (a compound having 20 or more is denoted as AA)
[2]; SPR, KD ratio class
  HRAS/KRAS (ratio of KD value for GDP-bound HRAS wild-type protein to KD value for KRAS): A (a compound having 10 or more and less than 20 is denoted as A)

## CC[C@H](C)[C@@H]1NC(=O)[C@@H]2CCC/C=C/c3ccc(cc3)C[C@@H](C(=O)N(C)CC(=O)N[C@@H](CCc3ccc(Cl)c(Cl)c3)C(=O)N3C[C@H](OC(C)C)C[C@H]3C(=O)NC3(CC(C)(C)C3)C(=O)N(C)[C@@H](C3CCCC3)C(=O)N(C)[C@H](C(=O)N(C)CC)CC(=O)N2C)N2CC/C=C\C[C@@H](C2=O)N(C)C(=O)CN(C)C1=O [PP2595]
[1]; class symbols
  NRAS/KRAS (ratio of KD value with respect to GDP-bound NRAS wild-type protein to KD value with respect to KRAS): A (a compound having 10 or more and less than 20 is denoted as A)
[2]; class symbols
  HRAS/KRAS (ratio of KD value with respect to GDP-bound HRAS wild-type protein to KD value with respect to KRAS): B (a compound having 3 or more and less than 10 is denoted as B)

## C=CCOC[C@]1(C)NC(=O)[C@@H]2CCCN2C(=O)[C@H](CCc2cc(F)c(C(F)(F)F)c(F)c2)NC(=O)CN(C)C(=O)[C@H](Cc2ccc(C(F)(F)F)cc2)N(CCC)C(=O)[C@@H]2CCN2C(=O)CN(C)C(=O)[C@H]([C@@H](C)CC)NC(=O)[C@H](CC(C)C)N(C)C(=O)C[C@@H](C(=O)N2CCOCC2)N(C)C(=O)[C@H](C2CCCC2)N(C)C1=O [PP0799] ([NMeL]I[Sar][Aze][NPrPhe(4-CF3)][Sar][hPhe(3,5-F2-4-CF3)]P[αMeS](Allyl)[NMeGly(cPent)][NMeD]-Morpholide; lactam N-11)
[1]; SPR
  NRAS/KRAS (ratio of KD value with respect to GDP-bound NRAS wild-type protein to KD value with respect to KRAS): C (A compound having a KD ratio of 0.1 or more and less than 3 is denoted as C)
[2]; SPR
  HRAS/KRAS (ratio of KD value with respect to GDP-bound HRAS wild-type protein to KD value with respect to KRAS): B (a compound having 3 or more and less than 10 is denoted as B)
